In ChEMBL document CHEMBL1201862, “PubChem BioAssay data set” (2004):
The source made the active and inactive calls.

Legend:
[1] = viability loss in HepG2 hepatoma cells – cell-based, ATP luminescence, cherry-pick, activator set 2, cytotoxicity control, dose response (AID 1053143); format: functional
[2] = Luminescence Cell-Based Dose Confirmation HTS to Identify Inhibitors of Platelet Dense Granule Release. [Related pubchem assays: 1663 (Primary HTS), 1678 (Summary of Project)]; format: functional
[3] = target: Luciferin 4-monooxygenase (Photinus pyralis, UniProt P08659); experiment: inhibition of purified Photinus pyralis luciferase – biochemical, luminescence, dose response (AID 1891)
Chain of Luciferin 4-monooxygenase (P08659 whole entry): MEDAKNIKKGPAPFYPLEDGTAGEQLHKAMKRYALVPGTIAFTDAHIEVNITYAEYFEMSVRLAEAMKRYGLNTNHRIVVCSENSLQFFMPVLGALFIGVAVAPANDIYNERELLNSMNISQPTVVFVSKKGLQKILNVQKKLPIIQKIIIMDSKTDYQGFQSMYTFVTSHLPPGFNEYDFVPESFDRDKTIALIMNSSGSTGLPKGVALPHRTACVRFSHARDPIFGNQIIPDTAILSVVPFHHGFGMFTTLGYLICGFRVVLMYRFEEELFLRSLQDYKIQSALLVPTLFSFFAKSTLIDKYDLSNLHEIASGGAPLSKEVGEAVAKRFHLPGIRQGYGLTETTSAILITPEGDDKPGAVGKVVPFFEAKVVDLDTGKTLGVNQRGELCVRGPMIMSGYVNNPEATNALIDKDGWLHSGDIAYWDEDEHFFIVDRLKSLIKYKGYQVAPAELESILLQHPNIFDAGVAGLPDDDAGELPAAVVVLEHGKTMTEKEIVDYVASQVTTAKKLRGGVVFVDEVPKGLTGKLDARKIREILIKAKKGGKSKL

[4] = NIH3T3 cell viability loss – ATP luminescence, mouse fibroblasts, counter-screen, dose response (AID 2010); format: functional, cell-based;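 further: cells exposed to compound for about 90 hours before reading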
[5] = Trypanosoma cruzi growth suppression in host cells – NIH3T3 host cells, beta-gal luminescence, confirmation (AID 2044); format: functional, cell-based;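 further: intracellular parasites grown in NIH/3T3 mouse fibroblasts as host cells; luminescent beta-galactosidase reporter signal from transgenic T. cruzi replicating inside host cells; inhibitors lower the luminescence signal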
[6] = reduction of Shn3 3'UTR-driven luciferase in osteoblasts – cell-based, Clone20 osteoblasts, firefly luciferase, cherry-picked, dose response (AID 624132); format: functional;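 further: firefly luciferase luminescence from reporter carrying the Shn3 3'UTR in osteoblasts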
[7] = tested on: HEK293; experiment: NOD2 signaling inhibitors in MDP-stimulated cells, cell-based, uHTS, luminescence (AID 2001); format: functional; details: Homo sapiens
[8] = tested on: HEK293; experiment: inhibition of NOD1-driven NF-kB reporter – cell-based, luminescence, uHTS, primary screen (AID 1578); format: functional; details: Homo sapiens
[9] = non-specific 3'UTR reporter inhibition in Clone20-Shn3RL – cell-based, Renilla luciferase, cherry-picked, counter-screen for Shn3 inhibitor project, dose response (AID 624133); format: functional
[10] = target: COUP transcription factor 2 (Homo sapiens, UniProt P24468); experiment: Luminescence-based cell-based high throughput dose response assay to identify inhibitors of COUP-TFII (NR2F2).; format: functional;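 further: HEK293 cells transiently cotransfected with COUP-TFII expression vector and reporter; luciferase reporter luminescence driven by COUP-TFII from the pX2-168 reporter plasmid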
Chain of COUP transcription factor 2 (P24468 whole entry): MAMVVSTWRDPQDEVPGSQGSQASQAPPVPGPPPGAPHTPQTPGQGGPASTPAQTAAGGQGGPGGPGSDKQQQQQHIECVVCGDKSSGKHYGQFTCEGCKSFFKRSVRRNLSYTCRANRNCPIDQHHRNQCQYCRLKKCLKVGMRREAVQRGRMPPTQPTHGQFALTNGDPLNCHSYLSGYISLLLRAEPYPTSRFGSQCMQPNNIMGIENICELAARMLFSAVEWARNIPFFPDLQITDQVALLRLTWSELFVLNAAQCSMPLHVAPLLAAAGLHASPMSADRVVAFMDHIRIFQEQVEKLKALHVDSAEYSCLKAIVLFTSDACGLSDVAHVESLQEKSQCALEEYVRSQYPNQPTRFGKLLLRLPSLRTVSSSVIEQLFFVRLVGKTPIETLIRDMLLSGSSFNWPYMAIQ

[11] = target: T1, Galanin receptor type 3 (Homo sapiens, UniProt O60755); experiment: Fluorescence-based cell-based primary high throughput dose response assay to identify antagonists of the Galanin Receptor 3 (GalR3).; format: functional
T1 sequence (O60755 whole entry): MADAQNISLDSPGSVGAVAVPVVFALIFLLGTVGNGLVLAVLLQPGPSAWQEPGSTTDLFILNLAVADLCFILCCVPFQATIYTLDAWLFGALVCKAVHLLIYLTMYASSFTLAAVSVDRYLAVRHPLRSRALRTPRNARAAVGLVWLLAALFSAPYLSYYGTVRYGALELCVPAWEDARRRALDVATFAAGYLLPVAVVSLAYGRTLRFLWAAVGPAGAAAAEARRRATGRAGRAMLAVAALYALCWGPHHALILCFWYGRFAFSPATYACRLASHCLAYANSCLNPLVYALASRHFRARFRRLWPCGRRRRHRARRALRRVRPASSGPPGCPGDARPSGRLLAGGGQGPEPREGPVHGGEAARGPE

[12] = tested on: HEK293; experiment: cells; format: functional, cell-based; details: Homo sapiens
[13] = loss of viability in HepG2 cells – cell-based, CellTiter-Glo, cherry-picked, cytotoxicity control for Shn3 inhibitor project, dose response (AID 624134); format: functional
[14] = tested on: HEK293; experiment: cells; format: functional, cell-based; details: Homo sapiens; remark: listed apart in the source
[15] = cells; format: functional, cell-based; details: HEK-CNG
[16] = target: Kallikrein-7 (Homo sapiens, UniProt P49862); experiment: Fluorescence Intensity-based biochemical primary high throughput dose response assay to identify activators of kallikrein-7 (K7) zymogen.
Chain of Kallikrein-7 (P49862 whole entry): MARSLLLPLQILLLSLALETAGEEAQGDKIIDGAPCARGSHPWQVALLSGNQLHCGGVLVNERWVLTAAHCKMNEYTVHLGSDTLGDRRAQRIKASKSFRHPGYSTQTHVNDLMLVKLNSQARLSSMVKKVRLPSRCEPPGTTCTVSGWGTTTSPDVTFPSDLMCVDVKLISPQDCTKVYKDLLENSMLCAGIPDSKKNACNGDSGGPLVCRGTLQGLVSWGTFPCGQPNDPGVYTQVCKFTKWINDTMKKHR

[17] = cells
[18] = HGIII-sPLA2 enzyme inhibition potency – biochemical, QFRET, IC50, dose response (AID 743457);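 further: green fluorescence rise as the enzyme cleaves BODIPY PC-A2 in liposomes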

Q: For `Cc1cc(NC(=O)c2cccc(F)c2)ncc1NC(=O)c1ccco1`, which AC50 [1] is on record?
A: Its AC50 is 26 µM (active).

Q: And the EC50 [2]?
A: The EC50 was 7.21 µM (active).

Q: And the EC50 [3]?
A: Its EC50 is 7.28 µM (active).

Q: What does the source list for `CC1CCC(C(C)C)C(OC(=O)COC(=O)c2cc(O)ccc2N)C1` (centres undefined)?
A: EC50 [4]: > 60 µM (not active); AC50 [1]: 26 µM (active); EC50 [5]: 4.92 µM (active)

Q: Which AC50 [6] does the source give for `O=C(Cc1ccc(Cl)cc1Cl)Nc1ccncc1Cl` here?
A: Its AC50 is 1.63 µM (active).

Q: What about the IC50 [7] of the same compound?
A: Its IC50 is 6.02 µM (active).

Q: What about the EC50 [8] of the same compound?
A: The EC50 was 3.7 µM (active).

Q: And the AC50 [9]?
A: The AC50 was 3.91 µM (active).

Q: What about the IC50 [10] of the same compound?
A: Its IC50 is 11.6 µM (inactive).

Q: And the IC50 [11]?
A: Its IC50 is 4.44 µM (active).

Q: What about the IC50 [12] of the same compound?
A: The IC50 was 5.77 µM (active).

Q: What about the AC50 [13] of the same compound?
A: The AC50 was 2.91 µM (active).

Q: What about the IC50 [14] of the same compound?
A: Its IC50 is > 20 µM (inactive).

Q: And the EC50 [15]?
A: Its EC50 is > 29.9 µM (inactive).

Q: With `CCCc1cc(NCCN(C)C)n2c(nc3ccccc32)c1C#N` as the compound, how does the EC50 [16] read?
A: Its EC50 is > 69.5 µM (inactive).

Q: Which IC50 [17] does the source give for `Sc1nc2ccccc2n2c(S)nnc12` here?
A: The IC50 was > 138 µM (inactive).

Q: For `O=C1c2ccccc2C(=O)c2c(Nc3ccc(CCO)cc3)ccc(O)c21`, which IC50 [18] is on record?
A: Its IC50 is > 122 µM (inactive).
